The text below walks through data of patent publication US20130131128A1, “ASSOCIATION OF XANTHINE OXIDASE INHIBITORS AND ANGIOTENSIN II RECEPTOR ANTAGONISTS AND USE THEREOF” (MENARINI INTERNATIONAL OPERATIONS LUXEMBOURG S.A., priority 2010, published 2013).

The test system of experiment [1] is spontaneously hypertensive rat (SHR). Description: Plasma uric acid (uricemia) in potassium oxonate-induced hyperuricemia in spontaneously hypertensive rats. Particulars: for Uricemia: SHR + K oxonate 250 mg/kg IP, 4 hours after last dose; for Δ Uricemia: SHR + K oxonate, difference vs Control + K oxonate; for Effect on hyperuricemia values (in words): oral, one week before potassium oxonate, 1-3-10 mg/kg, SHR. The class given is in vivo. How it is done: (§1) Pharmacological activity of febuxostat and olmesartan medoxomil, alone or in association, was assessed in an experimental model of hyperuricemia in spontaneously hypertensive rat (SHR, Harlan Laboratories, Udine, Italy). Systolic pressure (SBP) was measured in non-anesthesized animals by means of a tail cuff sphygmomanometer (Blood Pressure Analysis System BP-2000, Visitech Systems, USA) equipped with an automatic system for data acquisition and processing.
(§2) All animals were preconditioned daily for 2 weeks to accustom them to instrumental measuring of the pressure before starting the test. Hyperuricemia was induced with administration of potassium oxonate (250 mg/kg IP, 2 hours after the last dose of drugs and 2 hours before the test), an uricase inhibitor capable of inducing experimental hyperuricemia. Plasma levels of uric acid were measured with a standard colorimetric enzymatic method. Febuxostat and/or olmesartan were administered orally once per day for 7 days, by gavage, at the doses of 1-3-10 mg/kg.
(§3) Parameters measured in conscious rats were systolic pressure (SBP) and plasma uric acid/urate levels (uricemia), as well as basal values, both after one week of treatment and 2 hours after administration of potassium oxonate. Blood was collected from a tail vein.
(§4) Uricemia and systolic pressure values were recorded 4 hours after the last dose of drugs or vehicle. Potassium oxonate (250 mg/kg IP) was administered 2 ore before the test. Each value is the average of 7-13 tests.

Experiment [2] concerns hyperuricemia. Particulars: clinical studies; cited from earlier work.
In experiment [3] the test system is spontaneously hypertensive rat (SHR). Nature of the experiment: Systolic pressure (SBP) by tail cuff sphygmomanometer in conscious spontaneously hypertensive rats. Particulars: for SBP / Δ SBP: SHR + K oxonate; for SBP: 4 hours after last dose; for Δ SBP: difference vs Control + K oxonate; for Effect on systolic pressure (in words): 1-3-10 mg/kg per os, daily for 1 week, SHR. The format is in vivo. How it is done: as §1, §2, §3, §4

The test system of experiment [4] is 30 hypertensive subjects. Particulars: monotherapy, only teenagers; cited from earlier work.
Where [5] appears, read: 1 mg/kg day per os for one week.
[6] abbreviates: 3 mg/kg day per os for one week.
[7] abbreviates: 10 mg/kg day per os for one week.

Take `Cc1nc(-c2ccc(OCC(C)C)c(C#N)c2)sc1C(=O)O` [Febuxostat, febuxostat]: the Uricemia was 1.02 ± 0.07 mg/dL in experiment [1] (setting [5]), 0.78 ± 0.06 mg/dL in experiment [1] (setting [6]) and 0.49 ± 0.05 mg/dL in experiment [1] (setting [7]). For the same compound, the “Δ Uricemia” value was -0.15 mg/dL in experiment [1] (setting [5]), -0.39 mg/dL in experiment [1] (setting [6]) and -0.68 mg/dL in experiment [1] (setting [7]). For the same compound, the “Effect on hyperuricemia values (in words)” value in experiment [1] is “reduced in a significant and dose-dependent manner the hyperuricemia values”. The “Reduction of hyperuricemia compared with allopurinol (in words)” value in experiment [2] was “reduce hyperuricemia more effectively than allopurinol”. Also, the SBP in experiment [3] (setting [5]) is recorded as 234 ± 19 mmHg; in experiment [3] (setting [6]) it was 229 ± 24 mmHg; in experiment [3] (setting [7]), 228 ± 21 mmHg. The “Δ SBP” value in experiment [3] (setting [5]) is recorded as −5 mmHg; in experiment [3] (setting [6]) it was −10 mmHg; in experiment [3] (setting [7]), −11 mmHg. For the same compound, the “Effect on systolic pressure (in words)” value in experiment [3] is “slight inhibitory effect on systolic pressure”.
Take `CCCc1nc(C(C)(C)O)c(C(=O)OCc2oc(=O)oc2C)n1Cc1ccc(-c2ccccc2-c2nnn[nH]2)cc1` [Olmesartan, olmesartan medoxomil]: the figures for the Uricemia in experiment [1] (setting [5]), in experiment [1] (setting [6]) and in experiment [1] (setting [7]) were 1.16 ± 0.11 mg/dL, 1.10 ± 0.12 mg/dL and 1.08 ± 0.07 mg/dL, respectively. Besides, the “Δ Uricemia” value in experiment [1] (setting [5]) was -0.01 mg/dL; in experiment [1] (setting [6]) it was -0.07 mg/dL; in experiment [1] (setting [7]), -0.09 mg/dL. Also, the “Effect on hyperuricemia values (in words)” value in experiment [1] was “weakly active”. In addition, the values for the SBP in experiment [3] (setting [5]), in experiment [3] (setting [6]) and in experiment [3] (setting [7]) were 217 ± 14 mmHg, 202 ± 10 mmHg and 180 ± 11 mmHg, respectively. Besides, the figures for the “Δ SBP” value in experiment [3] (setting [5]), in experiment [3] (setting [6]) and in experiment [3] (setting [7]) were −22 mmHg, −37 mmHg and −59 mmHg, respectively. The “Effect on systolic pressure (in words)” value in experiment [3] was “reduced systolic pressure in a dose-dependent manner”.
In the case of `Oc1ncnc2[nH]ncc12` [allopurinol], the “Anti-hypertensive effect (in words)” value in experiment [4] is on record as “has shown an anti-hypertensive effect”.
